Results taken from patent US20090163452A1, “COMPOSITIONS AND METHODS FOR LOWERING SERUM CHOLESTEROL” (priority 2007, published 2009).

Columns and labels:
CYP3A = conditions: in vitro; complex with the vitamin D receptor; CYP3A substrate midazolam; cited from earlier work
[1] = Plasma atorvastatin and metabolite concentrations/AUC (LC-MS/MS) with and without supplemental vitamin D; type: in vivo, human
Experimental: Study protocol. A prospective crossover study was performed. […] Columbus Ohio 43216). All other prescribed medications were continued unchanged throughout the study. […] The sample cone voltage and collision energy for all analytes and internal standard were set at 30 V and 20 eV, respectively. Chromatography was performed on BDS C18 column (50×4.6 mm, 5 μm particle size, Thermo Electron Corporation, Bellefonte, Pa.). […] Twenty-five percent of flow liquid was split into the mass system. […] The organic layer then transferred to another tube and evaporated by N2 gas and reconstituted with 0.2 ml 50% CH3CN containing 0.05% acetic acid and 5 mM ammonium acetate, and 20 μl was injected onto column. Lower limit of detection was 0.313 ng/ml for atorvasatin and metabolites. […] Area under the plasma concentration vs. time curve (AUC) was calculated by trapezoidal rule.

circulating cholesterol = assay: Example 2: atorvastatin with 1000 IU/day vitamin D2 or D3 or placebo for 12 weeks, circulating cholesterol; type: in vivo, human; conditions: co-administration with atorvastatin
Experimental: The focus is on clinical populations including the elderly, frail, and minorities under steady-state conditions and with conditions reflecting “usual” clinical conditions with use of sparse sampling techniques and minimal impact on clinical care. […] About 90 participants are enrolled, with 30 receiving placebo, 30 receiving vitamin D2, and 30 receiving vitamin D3. Total vitamin D intake is analyzed (primarily driven by dairy food intake and supplements), and patients with major absorptive disorders (intestinal bypass surgery, feeding tubes requiring liquid diets, etc) are excluded. Other factors that could affect vitamin D absorption such as alcohol intake are evaluated.

[2] = test system: cholesterol (total, LDL-cholesterol, and HDL-cholesterol); assay: Serum cholesterol concentrations (enzymatic assay) in patients on atorvastatin with and without supplemental vitamin D; type: in vivo, human; conditions: for Cholesterol Total: serum; for Cholesterol Total / LDL-cholesterol / HDL-cholesterol: mean ± S.D.; for LDL-cholesterol: calculated LDL
Experimental: Study protocol. A prospective crossover study was performed. […] Columbus Ohio 43216). All other prescribed medications were continued unchanged throughout the study. […] Lipid concentration data. Serum samples were analyzed for cholesterol, LDL-cholesterol (calculated) and HDL-cholesterol concentrations by enzymatic assay (Quest Diagnostics, San Jose, Calif.).

[3] = Serum vitamin D metabolite concentrations (LCMSMS) in patients on atorvastatin, crossover with/without supplemental vitamin D; type: in vivo, human; conditions: vitamin D supplementation 800 IU/day for six weeks (On-D), mean ± S.D.
Experimental: Study protocol. A prospective crossover study was performed. […] If subjects were taking vitamin D supplementation at recruitment, assigned study order was “On-D” after six week of standardized study dispensed vitamins followed by the “Off-D” study after six weeks of vitamin D discontinuation. […] All other prescribed medications were continued unchanged throughout the study.

[4] = test system: cholesterol (total, LDL-cholesterol); assay: Example 3: 1000 IU/day vitamin D for 12 weeks in humans not receiving atorvastatin, cholesterol; type: in vivo, human; conditions: one middle-aged subject
Experimental: A study is performed with 1000 IU/day of either vitamin D2 or vitamin D3 or identically packaged placebo for a period of 12 weeks. Cholesterol (total, LDL-cholesterol, HDL-cholesterol) and triglycerides are evaluated before and during supplemental vitamin D or placebo. Focus is on adult humans with or without known lipid disorders that are not receiving atorvastatin.

[5] = no vitamin D supplementation (Off-D), atorvastatin
[6] = vitamin D supplementation 800 IU/day six weeks (On-D), patients on atorvastatin

C=C1/C(=C\C=C2/CCC[C@]3(C)[C@@H]([C@H](C)CCCC(C)(C)O)CC[C@@H]23)C[C@@H](O)C[C@@H]1O [1,25-(OH)2 vitamin D]
regulation of CYP3A activity (CYP3A): increased transcription of CYP3A protein and greater metabolism of the CYP3A substrate midazolam

CC(C)c1c(C(=O)Nc2ccccc2O)c(-c2ccccc2)c(-c2ccc(F)cc2)n1CCC(O)CC(O)CC(=O)O (centres unmarked) [2-OH, 2-hydroxyatorvastatin acid]
ratio of hydroxy-atorvastatin acid to atorvastatin ([1]; during supplemental vitamin D): 0.74±0.36
ratio of hydroxy-atorvastatin acid to atorvastatin ([1]; off-D): 0.81±0.32

CC(C)c1c(C(=O)Nc2ccc(O)cc2)c(-c2ccccc2)c(-c2ccc(F)cc2)n1CC[C@@H](O)C[C@@H](O)CC(=O)O [4-hydroxy-atorvastatin acid, 4-hydroxyatorvastatin acid]
AUC/concentrations during vitamin D co-administration compared to the off-D study period ([1]; comparison between study periods): significantly lower
ratio of hydroxy-atorvastatin acid to atorvastatin ([1]; during supplemental vitamin D): 0.09±0.09
ratio of hydroxy-atorvastatin acid to atorvastatin ([1]; off-D): 0.10±0.09

C=C1CC[C@H](O)C/C1=C/C=C1\CCC[C@]2(C)[C@@H]([C@H](C)CCCC(C)C)CC[C@@H]12 [D3, cholecalciferol]
circulating cholesterol compared with atorvastatin and placebo (circulating cholesterol): additional reduction

CC(C)c1c(C(=O)Nc2ccccc2)c(-c2ccccc2)c(-c2ccc(F)cc2)n1CC[C@@H](O)C[C@@H](O)CC(=O)O [atorvastatin]
Cholesterol Total ([2]; no vitamin D supplementation (Off-D), atorvastatin 45±33 mg/day): 169 ± 35 mg/dL
Cholesterol Total ([2]; no vitamin D supplementation (Off-D), atorvastatin 45±33 mg/day, listed as Atorvastatin): 169 ± 35 mg/dL
LDL-cholesterol [2, 5]: 97 ± 28 mg/dL
LDL-cholesterol ([2]; no vitamin D supplementation (Off-D), atorvastatin, listed as Atorvastatin): 97 ± 28 mg/dL
HDL-cholesterol [2, 5]: 47 ± 11 mg/dL

C=C1CC[C@H](O)C/C1=C/C=C1\CCC[C@]2(C)[C@@H]([C@H](C)/C=C/[C@H](C)C(C)C)CC[C@@H]12 [vitamin D2, ergocalciferol]
circulating cholesterol compared with atorvastatin and placebo (circulating cholesterol): additional reduction

vitamin D
Vitamin D (25-OH) Total 25-hydroxy serum concentration ([3]; patients on atorvastatin): 29 ± 14 ng/mL
Vitamin D (active) 1,25-dihydroxy serum concentration ([3]; patients on atorvastatin): 38 ± 15 pg/mL
D3, 25-hydroxy serum concentration [3]: 20 ± 17 ng/mL
difference in HDL-cholesterol with vitamin D supplementation ([2]; On-D versus Off-D): No difference
subjects with lower total cholesterol during supplemental vitamin D ([2]; On-D versus Off-D, patients on atorvastatin): thirteen of sixteen
mean difference in LDL-cholesterol ([2]; after six weeks of vitamin D supplementation, co-administered with atorvastatin): 14.4%
Cholesterol Total ([2]; vitamin D supplementation 800 IU/day six weeks (On-D), patients on atorvastatin 45±33 mg/day): 157 ± 37 mg/dL
LDL-cholesterol [2, 6]: 83 ± 30 mg/dL
HDL-cholesterol [2, 6]: 44 ± 11 mg/dL
total cholesterol ([4]; after about 12 weeks of 1000 IU vitamin D (single and combined forms of D2 and D3), 241 before vitamin D): 201 mg/dL
LDL-cholesterol ([4]; after about 12 weeks of 1000 IU vitamin D, 125 before vitamin D): 112 mg/dL
LDL-cholesterol ([4]; after about 12 weeks of 1000 IU vitamin D, 144 before vitamin D): 98 mg/dL
total cholesterol ([4]; after about 12 weeks of 1000 IU vitamin D, 238 before vitamin D): 219 mg/dL
